The source of these data is patent US7915383B2, “Method of separating a peptidoglycan recognition protein from a hemolymph Tenebrio molitor larvae” (Yuhan Corporation, priority 2006, dated 2011).

The test system of assay [1] is PGN-dependent pro-PO cascade in the hemolymph of Tenebrio molitor larvae. The assay is described as follows: PO activity assay (Pye-spectrophotometric method): effect of natural or synthetic PGN on PO activation. The assay is classed as biochemical. As to conditions: 30 μl hemolymph (protein 350 μg), 1 μg test substance (10 ng M. luteus PGN), 30° C.; FIG. 3. As to the method:
(§1) PO activity was assayed according to a Pye-spectrophotometric method using a substrate solution (4-methylcatechol, and 4-hydroxyproline ethylester in HCl). 4-methylcatechol was oxidized to quinone by PO, which was then converted through a non-enzymatic reaction with 4-hydroxyproline ethylester in HCl to 4-(4′-hydroxyl-2′-carbethoxy-1′-pyrroline)-5-methyl-o-benzoquinone, a stable compound having maximum absorbance at 520 nm (see FIG. 2)
(§2) Each of 10 μl (1 μg) of a 10% β-1,3-glucan solution, 10 μl. (1 μg) of a 10% S. aureus PGN solution, 10 μl (10 ng) of a 10% M. luteus PGN solution, and 10 μl (1 μg) of a 10% synthetic PGN (for each of the compounds of Formulae 1-4) solution was incubated together with 30 μl (protein 350 μg) of the hemolymph of Tenebrio molitor larvae at 30° C. for 5 minutes. Then, 4 μl of 4-methylcatechol (250 mM), 16 μl of 4-hydroxyproline ethylester (62.5 mM) in HCl, and 5 μl of 1M CaCl2 (10 mM) were added thereto. Then, 20 mM Tris-HCl (pH 8.0) was added to a final volume of 500 μl. The reaction mixture was incubated at 30° C. and the absorbance of the reaction solution was measured at 520 nm (see FIG. 3).

The subject of the next assay is amidase activity. The assay is described as follows: Amidase activity assay with Boc-Phe-Ser-Arg-MCA substrate. As to conditions: S. aureus PGN 1 μg plus synthetic PGN, 40 μM Boc-Phe-Ser-Arg-MCA, 30° C., fluorescence 380/460 nm; FIG. 6. The assay is classed as biochemical, Tenebrio molitor. As to the method:
10 μl of a 10% gram-positive S. aureus PGN (final concentration: 1 μg) solution and 10 μl of a 10% synthetic PGN (the compound 35 of Formula 3) solution were incubated in the presence of 40 μM trypsin MCA (t-butyloxycarbonyl-benzyl-L-phenylalanyl-L-seryl-L-arginine-4-methylcoumaryl-7-amide; Boc-Phe-Ser-Arg-MCA) as a substrate at 30° C., and fluorescence was measured at 380 nm (excitation wavelength) and 460 nm (emission wavelength) using a fluorescence spectrophotometer (model UV-160A, Shimadzu).

For assay [2], the system named is natural PGN-dependent PO activity in the hemolymph of Tenebrio molitor larvae. Briefly: Inhibition of natural PGN-dependent PO activity by synthetic PGN. The assay is classed as biochemical. The method, then: as §1
as §2, with “Then, 20 mM Tris-HCl (pH 8.0) was added to a final volume of 500 μl.” left out
Meanwhile, PO activity was also measured in the presence of 1 μg of S. aureus PGN and 1 μg of each of the synthetic PGNs.
Furthermore, PO activity was also measured in the presence of 1 μg of S. aureus PGN with an incremental addition of the synthetic PGN of Formula 3 (0.2, 0.4, 0.8, and 1.5 μg).

For the substance β-1,3-glucan, in assay [1], the “activation of the PGN-dependent pro-PO cascade (PO activity, absorbance at 520 nm)” value is “activated”.

As for “Tetrasaccharide Tetrapeptide [compound 35]”, the “inhibition of amidase activity” value in the assay on amidase activity is reported as “same inhibition pattern as the PO activity”. For the same substance, in assay [2] (1 μg of S. aureus PGN plus 0.2, 0.4, 0.8 and 1.5 μg synthetic PGN, FIG. 5), the “inhibition of PO activity with incremental addition of synthetic PGN” value is given as “inhibited in a synthetic PGN concentration-dependent manner”. Further, in assay [2] (in the presence of 1 μg of S. aureus PGN and 1 μg of each synthetic PGN, FIG. 4), the “inhibition of PGN-dependent PO activity” value is “strongest competitive inhibitor”.
